This is an account of results in patent EP2061765B1, “Serine-threonine protein kinase and PARP modulators” (Senhwa Biosciences, Inc., priority 2006, dated 2008).

Common to all, as to test: Cell proliferation assay (Alamar Blue)
Format in all cases: cell-based
On the technique in general: The colour change of resazurin is a common sign of viable cells or microbes.

One experiment relates to MDAMB231. Conditions: Homo sapiens, MDA-MB-231, 96 h, MDAMB231 cells, four days. Here is the method:
(§1) A representative cell-proliferation assay protocol using Alamar Blue dye (stored at 4°C, use 20ul per well) is described hereafter. 96-well plate setup and compound treatment • a. Split and trypsinize cells. • b. Count cells using hemocytometer. • c. Plate 4,000-5,000 cells per well in 100 µl of medium and seed into a 96-well plate according to the following plate layout. Add cell culture medium only to wells B10 to B12. Wells B1 to B9 have cells but no compound added. [formula] [formula] • d. Add 100 µl of 2X drug dilution to each well in a concentration shown in the plate layout above. At the same time, add 100 µl of media into the control wells (wells B10 to B12). Total volume is 200 µl/well. • e. Incubate four (4) days at 37°C, 5% CO2 in a humidified incubator. • f. Add 20µl Alamar Blue reagent to each well. • g. Incubate for four (4) hours at 37°C, 5% CO2 in a humidified incubator. • h. Record fluorescence at an excitation wavelength of 544nm and emission wavelength of 590nm using a microplate reader.
(§2) In the assays, cells are cultured with a test compound for approximately four days, the dye then is added to the cells and fluorescence of […] dye is detected after approximately four hours. Different types of cells can be utilized in the assays (e.g., HCT-116 human colorectal carcinoma cells, PC-3 human prostatic cancer cells and MiaPaca human pancreatic carcinoma cells). Anti-proliferative effects of representative compounds are provided hereafter.

The next experiment deals with BxPC3. Conditions: Homo sapiens, BXPC-3, 96 h, BxPC3 cells, four days. As to the method: as §1, §2
Another experiment has as its system PanC1. Conditions: Homo sapiens, PANC-1, 96 h, PanC1 cells, four days. Here is the method: as §1, §2

Each structure is given as a SMILES string.

Usually IC50 stands for the concentration needed to halve the response being measured. Low values mean inhibition by little substance, high ones a need for much substance. For the compound `CN(C)CCNc1ncc2c(n1)c(Nc1ccc(F)c(Cl)c1)nc1cc(C(=O)O)ccc12` [drawing 432], the half-inhibitory concentration (IC50) in the experiment with MDAMB231 was > 50 µM.

Regarding `O=C(O)c1ccc2c(c1)nc(Nc1ccc(F)c(Cl)c1)c1nc(NCc3ccccn3)ncc12` [drawing 433], the midpoint of inhibition in the experiment with MDAMB231, the IC50, lay at 33.7 µM.

`COC(CNc1ncc2c(n1)c(Nc1ccc(F)c(Cl)c1)nc1cc(C(=O)O)ccc12)OC` [drawing 434] had an IC50 with MDAMB231 of 25.4 µM.

As to `NC(=O)c1ccc2c(c1)nc(Nc1cccc(C(F)(F)F)c1)c1nc(NC3CC3)ncc12` [drawing 435], the IC50 in the experiment on MDAMB231 is > 50 µM.

In the experiment on MDAMB231, `O=C(NC1CC1)c1ccc2c(c1)nc(Nc1cccc(C(F)(F)F)c1)c1nc(NC3CC3)ncc12` [drawing 436] registered a half-maximal inhibitory concentration (IC50) of 39.8 µM.

Take `CNC(=O)c1ccc2c(c1)nc(Nc1cccc(C(F)(F)F)c1)c1nc(NC3CC3)ncc12` [drawing 437]: half-maximal inhibition with MDAMB231 (IC50) was put at 10.5 µM.

`O=C(O)c1ccc2c(c1)nc(Nc1ccc(F)c(Cl)c1)c1nc(NCc3cccnc3)ncc12` [drawing 438]: in the experiment on MDAMB231, it took 5.48 µM to reach half-maximal inhibition (IC50).

`O=C(O)c1ccc2c(c1)nc(Nc1ccc(F)c(Cl)c1)c1nc(NCc3ccncc3)ncc12` [drawing 439]: inhibition in the experiment with MDAMB231 was half-maximal at 12.1 µM (IC50). This IC50 lies about 2.2-fold higher than the previous one.

In turn, `O=C(O)c1ccc2c(c1)nc(Nc1ccccc1)c1nc(Nc3ccccc3)ncc12` [drawing 440] yielded an IC50 in the experiment on MDAMB231 of 19.2 µM.

Take `CC(C)OC(=O)Nc1ccc2c(c1)nc(Nc1cccc(C(F)(F)F)c1)c1nc(NC3CC3)ncc12` [drawing 441]: in the experiment with MDAMB231, inhibition was half-maximal at 4.27 µM (IC50).

Compound `CCOC(=O)CCNC(=O)c1ccc2c(c1)nc(Nc1cccc(C(F)(F)F)c1)c1nc(NC3CC3)ncc12` [drawing 442] yielded a half-maximal inhibitory concentration (IC50) in the experiment on MDAMB231 of 2.52 µM. Against the preceding compound, the IC50 is about 1.7-fold lower.

Take `O=C(O)c1ccc2c(c1)nc(Nc1ccc(F)c(Cl)c1)c1ncncc12` [drawing 445]: the concentration for half-maximal inhibition (IC50) in the experiment with BxPC3 worked out at 3.55 µM; with PanC1, 3.37 µM.

For `Fc1cccc(Nc2nc3cc(-c4nnn[nH]4)ccc3c3cnccc23)c1` [drawing 453], the half-inhibitory concentration (IC50) in the experiment on PanC1 is > 50 µM.

With `Fc1cc(Nc2nc3cc(-c4nnn[nH]4)ccc3c3cnccc23)ccc1Cl` [drawing 454], in the experiment with PanC1, the half-maximal inhibitory concentration (IC50) was > 50 µM.

For `Clc1cccc(Nc2nc3cc(-c4nnn[nH]4)ccc3c3cnccc23)c1` [drawing 458], the half-maximal inhibitory concentration (IC50) with PanC1 was > 50 µM.

Consider `O=C(O)c1ccc2c(c1)nc(Nc1ccccc1)c1nc(NC3CC3)ncc12` [drawing 461], for which the results for the 50% inhibitory concentration (IC50) with BxPC3 and in the experiment on PanC1 were 2.16 µM and 5.02 µM, respectively.

For `CCCNc1ncc2c(n1)c(Nc1ccccc1)nc1cc(C(=O)O)ccc12` [drawing 462], the IC50 worked out at 5.83 µM with BxPC3 and 4.28 µM in the experiment on PanC1.

In the case of `COCCNc1ncc2c(n1)c(Nc1ccccc1)nc1cc(C(=O)O)ccc12` [drawing 463], the 50% inhibitory concentration (IC50) with BxPC3 is 3.92 µM; in the experiment with PanC1 it was 32.6 µM.

Regarding `O=C(O)c1ccc2c(c1)nc(Nc1ccccc1)c1nc(NCCO)ncc12` [drawing 464], the IC50 was 23.5 µM in the experiment on BxPC3 and > 50 µM in the experiment with PanC1.

For the compound `O=C(O)c1ccc2c(c1)nc(Nc1ccccc1)c1nc(NCCCO)ncc12` [drawing 465], the IC50 was determined as 9.41 µM in the experiment on BxPC3 and 34.2 µM with PanC1.

`O=C(O)c1ccc2c(c1)nc(Nc1ccccc1)c1nc(NC3CCNCC3)ncc12` [drawing 466]: the half-inhibitory concentration (IC50) with BxPC3 is 8.36 µM; in the experiment on PanC1, > 50 µM.

As to `CCN(CC)CCNc1ncc2c(n1)c(Nc1ccccc1)nc1cc(C(=O)O)ccc12` [drawing 467], the IC50 with BxPC3 is 10.7 µM; with PanC1, > 50 µM.

In the case of `O=C(O)c1ccc2c(c1)nc(Nc1ccccc1)c1nc(NCCN3CCOCC3)ncc12` [drawing 468], the IC50 turned out to be 4.67 µM with BxPC3 and 27.4 µM in the experiment with PanC1.

Turning to `O=C(O)c1ccc2c(c1)nc(Nc1ccccc1)c1nc(NCCCN3CCOCC3)ncc12` [drawing 469], the IC50 with BxPC3 was 1.65 µM; in the experiment with PanC1, > 50 µM.

In the case of `C#Cc1cccc(Nc2nc3cc(C(=O)O)ccc3c3cnc(NC4CC4)nc23)c1` [drawing 470], the IC50 in the experiment on BxPC3 came to 1.05 µM; with PanC1 it was 5.79 µM.

In the experiment on BxPC3, `O=C(O)c1ccc2c(c1)nc(Nc1ccc(F)c(Cl)c1)c1nc(NCc3ccncc3)ncc12` [drawing 511] yielded an IC50 of 7.33 µM.
